Literature values, collected in patent publication US8580852B2, “2-oxamide inhibitors of phospholipase A2 activity and cellular arachidonate release based on dipeptides and pseudopeptides” (The Regents of the University of California, priority 2009, dated 2013).
Marks after values point to notes of the source that are not given here.

Experiments:
GIVA cPLA2 = target: T1, GIVA cPLA2 (Homo sapiens, UniProt P47712); conditions: reference inhibitors; data taken from ref 15; cited from earlier work
T1 sequence (P47712 1-749): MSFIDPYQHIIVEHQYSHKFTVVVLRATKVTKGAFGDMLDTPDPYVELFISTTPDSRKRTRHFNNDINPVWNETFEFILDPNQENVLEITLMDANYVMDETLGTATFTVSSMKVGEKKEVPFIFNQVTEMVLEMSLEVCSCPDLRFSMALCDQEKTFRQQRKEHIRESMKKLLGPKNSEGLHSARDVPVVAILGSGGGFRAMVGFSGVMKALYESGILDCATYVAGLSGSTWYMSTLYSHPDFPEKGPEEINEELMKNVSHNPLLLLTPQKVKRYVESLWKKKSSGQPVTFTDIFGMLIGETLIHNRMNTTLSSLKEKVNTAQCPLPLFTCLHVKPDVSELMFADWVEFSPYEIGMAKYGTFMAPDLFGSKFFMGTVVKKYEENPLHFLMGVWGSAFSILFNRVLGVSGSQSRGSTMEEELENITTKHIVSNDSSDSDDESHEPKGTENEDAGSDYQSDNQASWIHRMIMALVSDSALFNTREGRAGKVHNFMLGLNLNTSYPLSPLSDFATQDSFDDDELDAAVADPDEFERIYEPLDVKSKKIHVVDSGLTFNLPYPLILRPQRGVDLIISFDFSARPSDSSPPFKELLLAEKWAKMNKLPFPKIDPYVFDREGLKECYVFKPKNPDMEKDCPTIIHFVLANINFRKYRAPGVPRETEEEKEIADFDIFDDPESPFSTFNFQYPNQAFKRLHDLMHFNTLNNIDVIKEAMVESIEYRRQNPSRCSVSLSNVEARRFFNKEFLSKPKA

GVIA iPLA2 = target: T2, GVIA iPLA2 (Homo sapiens, UniProt O60733); conditions: reference inhibitors; data taken from ref 15; cited from earlier work
T2 sequence (O60733 1-806): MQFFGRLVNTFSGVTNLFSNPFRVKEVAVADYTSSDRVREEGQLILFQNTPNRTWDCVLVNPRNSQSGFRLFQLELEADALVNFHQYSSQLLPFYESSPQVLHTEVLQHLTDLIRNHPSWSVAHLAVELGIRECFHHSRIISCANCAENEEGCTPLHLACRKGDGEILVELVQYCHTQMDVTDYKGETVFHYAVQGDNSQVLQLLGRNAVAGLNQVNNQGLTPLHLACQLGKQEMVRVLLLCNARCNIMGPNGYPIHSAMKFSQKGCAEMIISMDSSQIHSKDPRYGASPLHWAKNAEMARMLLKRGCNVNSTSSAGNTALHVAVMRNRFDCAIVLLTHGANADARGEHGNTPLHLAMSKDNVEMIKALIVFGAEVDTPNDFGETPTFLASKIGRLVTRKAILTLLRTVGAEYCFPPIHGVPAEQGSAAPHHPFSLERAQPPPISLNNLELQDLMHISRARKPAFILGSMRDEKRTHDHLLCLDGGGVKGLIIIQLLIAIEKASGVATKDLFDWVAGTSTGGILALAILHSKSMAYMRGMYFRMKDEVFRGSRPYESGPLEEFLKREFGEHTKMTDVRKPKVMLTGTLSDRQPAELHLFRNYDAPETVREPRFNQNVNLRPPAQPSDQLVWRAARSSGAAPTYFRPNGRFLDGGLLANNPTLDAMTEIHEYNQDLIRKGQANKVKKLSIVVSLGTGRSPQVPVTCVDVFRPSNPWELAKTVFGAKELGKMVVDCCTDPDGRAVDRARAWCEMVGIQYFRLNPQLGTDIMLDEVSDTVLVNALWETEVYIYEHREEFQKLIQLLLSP

## CCCCCCCCCCCCCCC(=O)C(=O)NCCCC(=O)OCC [AX048, reference compound]
GIVA cPLA2
  GIVA cPLA2 X1(50): 0.022 ± 0.009^b mole fraction
GVIA iPLA2
  GVIA iPLA2 X1(50): 0.027 ± 0.009^b mole fraction
